Substitutions are numbered along the chain they refer to. Values joined by “and” are separate entries in the source; they are usually repeats but may differ in a detail not shown here. Equal values may be shown once. “Also recorded” adds a separate entry of the source. Read-outs that look alike come from different tables or passages of the source. Blank lines part the entries; values can stand above or below the compound they belong to.
Columns and labels:
[1] = target: T1, wt-mouse-(m)RNR-α (Mus musculus, UniProt P07742); type: cell-based; details: 3 h treatment; 5, 50, 300 μM ClF, ClA, FlUMP; wt-mRNR-α 3T3 cells
T1 sequence (P07742 1-792): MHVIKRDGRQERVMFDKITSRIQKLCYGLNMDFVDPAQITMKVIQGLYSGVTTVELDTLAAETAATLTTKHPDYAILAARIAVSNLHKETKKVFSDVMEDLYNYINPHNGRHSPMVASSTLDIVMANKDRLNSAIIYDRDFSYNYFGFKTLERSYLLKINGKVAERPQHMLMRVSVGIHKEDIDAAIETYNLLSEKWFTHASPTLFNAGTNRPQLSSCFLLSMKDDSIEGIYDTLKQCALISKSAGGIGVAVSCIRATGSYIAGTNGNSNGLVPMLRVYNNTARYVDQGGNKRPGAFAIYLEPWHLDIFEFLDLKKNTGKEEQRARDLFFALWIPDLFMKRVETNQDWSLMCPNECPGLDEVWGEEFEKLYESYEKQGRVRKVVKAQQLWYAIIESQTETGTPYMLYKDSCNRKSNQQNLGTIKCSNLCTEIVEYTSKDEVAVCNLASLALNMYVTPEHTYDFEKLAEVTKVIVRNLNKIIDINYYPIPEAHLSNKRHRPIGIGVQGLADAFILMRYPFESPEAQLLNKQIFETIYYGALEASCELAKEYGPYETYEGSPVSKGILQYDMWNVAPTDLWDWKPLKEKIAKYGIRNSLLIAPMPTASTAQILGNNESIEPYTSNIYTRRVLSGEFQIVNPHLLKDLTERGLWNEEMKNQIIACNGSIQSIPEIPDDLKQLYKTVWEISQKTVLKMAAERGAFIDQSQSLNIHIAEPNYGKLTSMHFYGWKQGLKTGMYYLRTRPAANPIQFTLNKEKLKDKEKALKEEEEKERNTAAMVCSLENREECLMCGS

[2] = test system: Flp-In 293 T-REx cells expressing RNR-α-Flag; assay: Proliferation inhibition assay
[3] = test system: Flp-In 293 T-REx cells expressing D57N-α-Flag; assay: Proliferation inhibition assay
[4] = target: T2, mutant (D57N)-mouse(m)RNR-α (Mus musculus, UniProt P07742, D57N); type: cell-based; details: 3 h treatment; 5, 50, 300 μM ClF, ClA, FlUMP; D57N-mRNR-α 3T3 cells
T2 sequence (P07742 1-792 D57N): T1 sequence (P07742 1-792) with D57N

[5] = target: T3, wild type RNR-α (Homo sapiens, UniProt P23921); assay: Fluorescence anisotropy displacement of Texas Red-5-dATP from wild type RNR-α; details: for further decrease in FA after S site preblocked with saturating dTTP: RNR-α, T*-dATP, saturating ligand then added
T3 sequence (P23921 1-792): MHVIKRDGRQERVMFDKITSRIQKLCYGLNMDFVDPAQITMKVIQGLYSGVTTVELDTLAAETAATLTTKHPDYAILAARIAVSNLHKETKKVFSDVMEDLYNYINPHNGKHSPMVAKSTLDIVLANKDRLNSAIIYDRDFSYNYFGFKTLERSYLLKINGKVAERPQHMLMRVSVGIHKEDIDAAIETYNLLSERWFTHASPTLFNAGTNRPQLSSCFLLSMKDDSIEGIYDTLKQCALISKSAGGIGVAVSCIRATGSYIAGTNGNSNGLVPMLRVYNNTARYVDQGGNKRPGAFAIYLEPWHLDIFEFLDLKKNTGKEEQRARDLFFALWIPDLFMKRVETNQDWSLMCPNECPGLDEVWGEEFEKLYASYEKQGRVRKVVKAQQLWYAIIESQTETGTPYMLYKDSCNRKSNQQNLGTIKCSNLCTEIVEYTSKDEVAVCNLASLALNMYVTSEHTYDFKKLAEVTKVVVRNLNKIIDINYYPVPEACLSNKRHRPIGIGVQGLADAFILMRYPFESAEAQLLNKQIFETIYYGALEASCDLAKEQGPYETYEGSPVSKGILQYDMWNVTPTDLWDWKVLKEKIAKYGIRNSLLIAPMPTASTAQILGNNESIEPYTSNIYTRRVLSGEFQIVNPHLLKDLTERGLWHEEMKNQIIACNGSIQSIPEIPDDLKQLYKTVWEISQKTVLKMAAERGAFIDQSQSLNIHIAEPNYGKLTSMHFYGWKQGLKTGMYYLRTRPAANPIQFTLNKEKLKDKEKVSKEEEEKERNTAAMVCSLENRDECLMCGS

[6] = target: T4, RNR-α (Homo sapiens, UniProt P23921); assay: Gel filtration analysis of RNR-α oligomeric state; details: for oligomeric state by gel filtration of α presaturated with dATP (S and A sites): running buffer without nucleotides
T4 sequence (P23921 1-792): T3 sequence (P23921 1-792)

[7] = target: T5, D57N-human RNR-α mutant (Homo sapiens, UniProt P23921, D57N); assay: Inhibition of D57N RNR-α reductase activity; type: biochemical; details: up to at least 10-fold above the Ki for wt
T5 sequence (P23921 1-792 D57N): T3 sequence (P23921 1-792) with D57N

[8] = target: T4, RNR-α; assay: FRET-quenching assay reporting ligand-driven RNR-α oligomerization
[9] = target: T6, D57N RNR-α (Homo sapiens, UniProt P23921, D57N); assay: Fluorescence anisotropy displacement of Texas Red-5-dATP from D57N RNR-α; type: binding; details: D57N RNR-α 6 μM, T*-dATP 1.2 μM
T6 sequence (P23921 1-792 D57N): T3 sequence (P23921 1-792) with D57N

[10] = test system: E. coli RNR; details: cited from earlier work
[11] = target: T5, D57N-human RNR-α mutant; details: CDP as substrate; cited from earlier work
[12] = target: T7, RNR-β (Homo sapiens, UniProt P31350); assay: RNR β-specific activity assay; type: biochemical
T7 sequence (P31350 1-389): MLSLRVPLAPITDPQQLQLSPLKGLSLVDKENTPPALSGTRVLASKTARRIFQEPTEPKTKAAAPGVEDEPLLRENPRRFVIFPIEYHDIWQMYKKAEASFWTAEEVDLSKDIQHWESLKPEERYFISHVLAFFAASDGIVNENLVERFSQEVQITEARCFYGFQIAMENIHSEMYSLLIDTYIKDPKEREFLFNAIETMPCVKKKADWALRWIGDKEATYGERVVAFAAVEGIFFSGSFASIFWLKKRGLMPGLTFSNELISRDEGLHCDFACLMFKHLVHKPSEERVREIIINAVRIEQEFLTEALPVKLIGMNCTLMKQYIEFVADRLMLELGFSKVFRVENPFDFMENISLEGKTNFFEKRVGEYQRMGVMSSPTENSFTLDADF

SMILES: Nc1nc(Cl)nc2c1ncn2[C@H]1C[C@H](O)[C@@H](CO)O1 [ClA, cladribine]
RNR inhibition in cells (rate of [5-3H]-dCDP formation in lysate) [1]: potent RNR inhibition
effect of RNR-α overexpression on cytotoxicity relative to noninduced cells [2]: small effect on the EC50
protection against cytotoxicity upon tet induction relative to noninduced [3]: > 20 fold
RNR reductase activity in D57N-α-expressing lines after drug treatment [4]: not suppressed

further decrease in FA after S site preblocked with saturating dTTP [5]: no statistically significant changes
oligomeric state by gel filtration of α presaturated with dATP (S and A sites) [6]: hexameric peak was observed
time to complete oligomerization (time-dependent FRET) [8]: less than 5 min
SMILES: Nc1nc(Cl)nc2c1ncn2[C@H]1C[C@H](O)[C@@H](COP(=O)(O)OP(=O)(O)O)O1 [ClADP]
inhibition of D57N-α [7]: did not inhibit; also recorded: failed to inhibit; also recorded: neither of the diphosphates inhibited

further decrease in FA after S site preblocked with saturating dTTP [5]: 20 ± 1% and ~ 20%
drop in FA on wild type protein compared with D57N ([5]; ligand added in place of dTTP/dGTP): significantly higher drop in FA
decrease in FA relative to dTTP/dGTP (fold less) [9]: ~ 7 fold
SMILES: Nc1nc(Cl)nc2c1ncn2[C@H]1C[C@H](O)[C@@H](COP(=O)(O)OP(=O)(O)OP(=O)(O)O)O1 [ClATP]
inhibition of D57N-α [7]: unresponsive; also recorded: failed to inhibit

SMILES: Nc1nc(Cl)nc2c1ncn2[C@@H]1O[C@H](COP(=O)(O)OP(=O)(O)OP(=O)(O)O)[C@@H](O)[C@@H]1F [ClFTP]
inhibition of E. coli RNR [10]: failed to inhibit

SMILES: Nc1ccn([C@@H]2O[C@H](CO)[C@@H](O)C2(F)F)c(=O)n1 [F2C, gemcitabine]
RNR reductase activity in D57N-α-expressing lines after drug treatment [4]: sensitive

SMILES: Nc1ccn([C@@H]2O[C@H](COP(=O)(O)OP(=O)(O)O)[C@@H](O)C2(F)F)c(=O)n1 [F2CDP, gemcitabine diphosphate]
inhibition of D57N-α [7]: inhibits D57N-α as effectively as the wild type; also recorded: promoted inactivation of D57N-α as well as wt-α

SMILES: Nc1nc(F)nc2c1ncn2[C@@H]1O[C@H](COP(=O)(O)OP(=O)(O)O)[C@@H](O)[C@@H]1O [FlUDP]
oligomeric state of eluted α by gel filtration ([6]; 20 μM FlUDP included in running buffer): exclusively α6
inhibition of D57N-α [7]: did not inhibit; also recorded: neither of the diphosphates inhibited
time to complete oligomerization (time-dependent FRET) [8]: less than 5 min

SMILES: Nc1nc(F)nc2c1ncn2[C@@H]1O[C@H](COP(=O)(O)O)[C@@H](O)[C@@H]1O [FlUMP]
RNR inhibition in cells (rate of [5-3H]-dCDP formation in lysate) [1]: potent RNR inhibition
effect of RNR-α overexpression on cytotoxicity relative to noninduced cells ([2]; 48 h drug): no protection
effect of D57N-α overexpression on cytotoxicity relative to noninduced cells ([3]; 48 h drug): no protection
RNR reductase activity in D57N-α-expressing lines after drug treatment [4]: not suppressed

SMILES: Nc1nc(F)nc2c1ncn2[C@@H]1O[C@H](COP(=O)(O)OP(=O)(O)OP(=O)(O)O)[C@@H](O)[C@@H]1O [FlUTP]
inhibition of D57N-α [7]: unresponsive; also recorded: failed to inhibit
time to complete oligomerization (time-dependent FRET) [8]: less than 5 min

oligomeric state by gel filtration of α presaturated with dATP (S and A sites) [6]: only elutes as lower-order species
SMILES: Nc1ncnc2c1ncn2[C@H]1C[C@H](O)[C@@H](COP(=O)(O)OP(=O)(O)OP(=O)(O)O)O1 [dATP]
reduced affinity at the A site of D57N relative to wt [11]: ~ 300 fold

drop in FA on addition of S-site binder ([5]; RNR-α 6 μM, T*-dATP 1.2 μM, saturating ligand): 49 ± 1% and ~ 50%
drop in FA [9]: 39 ± 1%
SMILES: Cc1cn([C@H]2C[C@H](O)[C@@H](COP(=O)(O)OP(=O)(O)OP(=O)(O)O)O2)c(=O)[nH]c1=O [dTTP]

β-specific activity [12]: suppressed
SMILES: NC(=S)N/N=C/c1ncccc1N [triapine]

Source: PMC4946967 (ACS chemical biology, 2016)
